This assay deals with p38α (Homo sapiens, UniProt Q16539). Briefly: p38α/MK2 cascade assay. It is filed as biochemical. The note with it: read-out: p38a/MK2 Cascade 40 min Pre-Incuabtion (% Inhibition): IC50. The method, boiled down: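 In a cascade format, p38α was preincubated 40 min with inhibitor (1000–0.05 nM) before adding 1 nM nonactive MK2 (54-400), 5 μM MgATP and 0.5 μM FITC-Hsp27 peptide. Reaction ran 60 min in HEPES pH 7.5 with MgCl2, DTT, 2% DMSO, then EDTA-quenched. Peptide phosphorylation was measured by Caliper mobility shift to give IC50.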
Chain of p38α (Q16539 whole entry): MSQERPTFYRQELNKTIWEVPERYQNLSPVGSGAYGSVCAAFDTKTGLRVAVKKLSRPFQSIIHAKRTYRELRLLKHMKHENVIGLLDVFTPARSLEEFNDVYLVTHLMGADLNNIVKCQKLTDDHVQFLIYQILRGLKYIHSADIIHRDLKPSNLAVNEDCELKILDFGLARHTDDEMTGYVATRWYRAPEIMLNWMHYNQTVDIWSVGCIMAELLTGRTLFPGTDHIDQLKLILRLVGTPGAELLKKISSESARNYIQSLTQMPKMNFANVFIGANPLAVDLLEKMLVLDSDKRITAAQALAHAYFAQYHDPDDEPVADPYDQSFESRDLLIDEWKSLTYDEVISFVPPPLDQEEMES

The mark [1] stands for this setting: Table 1, inhibitors preincubated with p38α for 40 minutes, phosphorylation of Hsp27 peptide by MK-2, Caliper LabChip 3000.
Setting [2] is: Table 2, same p38α/MK2 cascade assay, 40 minutes preincubation.

Consider 22 molecules from patent publication US20090270350A1, “Pyridinone Pyrazole Urea and Pyrimidinone Pyrazole Urea Derivatives” (PFIZER INC., priority 2006, published 2009).

Where two headings read alike, the source gives them in different places.

As for `Cc1cc(OCc2ccccc2CNC(=O)Nc2cc(C(C)(C)C)nn2-c2cccc(Cl)c2)c(Br)c(=O)n1Cc1ccccc1` [Example 108, 1-(2-{[(1-benzyl-3-bromo-6-methyl-2-oxo-1,2-dihydropyridin-4-yl)oxy]methyl}benzyl)-3-[3-tert-butyl-1-(3-chlorophenyl)-1H-pyrazol-5-yl]urea], the IC50 under setting [1] worked out at 3.71 nM.

With `CNC(=O)c1ccc(C)c(-n2c(C)cc(OCc3ccc(F)cc3CNC(=O)Nc3cc(C(C)(C)C)nn3-c3cccc(OC)c3)c(Cl)c2=O)c1` [Example 208, 3-{4-[(2-{[({[3-tert-butyl-1-(3-methoxyphenyl)-1H-pyrazol-5-yl]amino}carbonyl)amino]methyl}-4-fluorobenzyl)oxy]-3-chloro-6-methyl-2-oxopyridin-1(2H)-yl}-N,4-dimethyl-benzamide], the IC50 under setting [2] came out at 1.79 nM.

As to `COc1cc(Cn2c(C)cc(OCc3ccccc3CNC(=O)Nc3cc(C(C)(C)C)nn3-c3ccc(Cl)c(O)c3)c(Cl)c2=O)ccc1Cl` [Example 256, 1-[3-tert-butyl-1-(4-chloro-3-hydroxyphenyl)-1H-pyrazol-5-yl]-3-[2-({[3-chloro-1-(4-chloro-3-methoxybenzyl)-6-methyl-2-oxo-1,2-dihydropyridin-4-yl]oxy}methyl)benzyl]urea], the IC50 under setting [2] was found to be 19.9 nM.

With `COc1cccc(-n2nc(C(C)(C)C)cc2NC(=O)NCc2ccccc2COc2cc(C)n(Cc3ccccc3)c(=O)c2C)c1` [Example 128-B, 1-(2-{[(1-benzyl-3,6-dimethyl-2-oxo-1,2-dihydropyridin-4-yl)oxy]methyl}benzyl)-3-[3-tert-butyl-1-(3-methoxyphenyl)-1H-pyrazol-5-yl]urea], under setting [1], the IC50 was 12.5 nM.

Regarding `COc1cc(Cn2c(C)cc(OCc3ccccc3CNC(=O)Nc3cc(C(C)(C)C)nn3-c3ccc(O)c(Cl)c3)c(Cl)c2=O)ccc1Cl` [Example 254, 1-[3-tert-butyl-1-(3-chloro-4-hydroxyphenyl)-1H-pyrazol-5-yl]-3-[2-({[3-chloro-1-(4-chloro-3-methoxybenzyl)-6-methyl-2-oxo-1,2-dihydropyridin-4-yl]oxy}methyl)benzyl]urea], the IC50 under setting [2] stood at 26.6 nM.

Consider `COc1cccc(Cn2c(C)cc(OCc3ccccc3CNC(=O)Nc3cc(C(C)(C)C)nn3-c3ccc(Cl)c(O)c3)c(C)c2=O)c1` [Example 47, 1-[3-tert-butyl-1-(4-chloro-3-hydroxyphenyl)-1H-pyrazol-5-yl]-3-[2-({[1-(3-methoxybenzyl)-3,6-dimethyl-2-oxo-1,2-dihydropyridin-4-yl]oxy}methyl)benzyl]urea], for which, under setting [1], the IC50 was found to be 12.2 nM.

Turning to `CCc1c(OCc2ccccc2CNC(=O)Nc2cc(C(C)(C)C)nn2-c2cccc(OC)c2)ncn(Cc2ccc(OC)cc2)c1=O` [Example 115, 1-[3-tert-butyl-1-(3-methoxyphenyl)-1H-pyrazol-5-yl]-3-[2-({[5-ethyl-1-(4-methoxybenzyl)-6-oxo-1,6-dihydropyrimidin-4-yl]oxy}methyl)benzyl]urea], the IC50 under setting [1] came to 25.8 nM.

As to `COc1ccc(Cn2c(C)cc(OCc3ccccc3CNC(=O)Nc3cc(C(C)(C)C)nn3-c3ccc(C)cc3)c(C)c2=O)c(OC)c1` [Example 245, 1-[3-tert-butyl-1-(4-methylphenyl)-1H-pyrazol-5-yl]-3-[2-({[1-(2,4-dimethoxybenzyl)-3,6-dimethyl-2-oxo-1,2-dihydropyridin-4-yl]oxy}methyl)benzyl]urea], the IC50 under setting [2] amounted to 13.4 nM.

In the case of `COc1cccc(Cn2c(C)cc(OCc3ccccc3CNC(=O)Nc3cc(C(C)(C)C)nn3-c3ccc(O)c(Cl)c3)c(Cl)c2=O)c1` [Example 215, 1-[3-tert-butyl-1-(3-chloro-4-hydroxyphenyl)-1H-pyrazol-5-yl]-3-[2-({[3-chloro-1-(3-methoxy-benzyl)-6-methyl-2-oxo-1,2-dihydropyridin-4-yl]oxy}methyl)-benzyl]urea], under setting [2], the IC50 amounted to 8 nM.

Take `Cc1cc(OCc2ccccc2CNC(=O)Nc2cc(C(C)(C)C)nn2-c2ccccc2)c(Br)c(=O)n1Cc1ccccc1` [Example 104, 1-(2-{[(1-benzyl-3-bromo-6-methyl-2-oxo-1,2-dihydropyridin-4-yl)oxy]methyl}benzyl)-3-(3-tert-butyl-1-phenyl-1H-pyrazol-5-yl)urea]: the IC50 under setting [1] was found to be 4.52 nM.

Regarding `COc1ccc(Cn2c(C)cc(OCc3ccccc3CNC(=O)Nc3cc(C(C)(C)C)nn3-c3cccc(F)c3)c(Br)c2=O)cc1` [Example 97, 1-[2-({[3-bromo-1-(4-methoxybenzyl)-6-methyl-2-oxo-1,2-dihydropyridin-4-yl]oxy}methyl)benzyl]-3-[3-tert-butyl-1-(3-fluorophenyl)-1H-pyrazol-5-yl]urea], under setting [1], the IC50 is 3.9 nM.

On to `COc1ccc(Cn2c(C)cc(OCc3ccccc3CNC(=O)Nc3cc(C(C)(C)C)nn3-c3ccc(Cl)c(O)c3)c(C)c2=O)cc1Cl` [Example 260, 1-[3-tert-butyl-1-(4-chloro-3-hydroxyphenyl)-1H-pyrazol-5-yl]-3-[2-({[1-(3-chloro-4-methoxybenzyl)-3,6-dimethyl-2-oxo-1,2-dihydropyridin-4-yl]oxy}methyl)benzyl]urea], for which the IC50 under setting [2] amounted to 15.4 nM.

Take `COc1ccccc1Cn1c(C)cc(OCc2ccccc2CNC(=O)Nc2cc(C(C)(C)C)nn2-c2ccc(O)cc2)c(Cl)c1=O` [Example 246, 1-[3-tert-butyl-1-(4-hydroxyphenyl)-1H-pyrazol-5-yl]-3-[2-({[3-chloro-1-(2-methoxybenzyl)-6-methyl-2-oxo-1,2-dihydropyridin-4-yl]oxy}methyl)benzyl]urea]: the IC50 under setting [2] was determined as 10 nM.

`COc1ccc(Cn2c(C)cc(OCc3ccccc3CNC(=O)Nc3cc(C(C)(C)C)nn3-c3cccc(OCCO)c3)c(C)c2=O)cc1C#N` [Example 250, 1-{3-tert-butyl-1-[3-(2-hydroxyethoxy)phenyl]-1H-pyrazol-5-yl}-3-[2-({[1-(3-cyano-4-methoxybenzyl)-3,6-dimethyl-2-oxo-1,2-dihydropyridin-4-yl]oxy}methyl)benzyl]urea]: under setting [2], the IC50 worked out at 8.4 nM.

As for `Cc1ccc(C(=O)NCCN(C)C)cc1-n1c(C)cc(OCc2ccccc2CNC(=O)Nc2cc(C(C)(C)C)nn2-c2ccc(O)c(Cl)c2)c(Cl)c1=O` [Example 229, 3-{4-[(2-{[({[3-tert-butyl-1-(3-chloro-4-hydroxyphenyl)-1H-pyrazol-5-yl]amino}carbonyl)amino]methyl}benzyl)oxy]-3-chloro-6-methyl-2-oxopyridin-1(2H)-yl}-N-[2-(dimethylamino)-ethyl]-4-methylbenzamide], under setting [2], the IC50 turned out to be 2.3 nM.

For the molecule `Cc1ccc(-n2nc(C(C)(C)C)cc2NC(=O)NCc2cc(F)ccc2COc2cc(C)n(-c3cc(C(=O)O)ccc3C)c(=O)c2Br)cc1` [Example 207, 3-{3-bromo-4-[(2-{[({[3-tert-butyl-1-(4-methylphenyl)-1H-pyrazol-5-yl]amino}carbonyl)-amino]methyl}-4-fluorobenzyl)oxy]-6-methyl-2-oxopyridin-1(2H)-yl}-4-methylbenzoic acid], under setting [2], the IC50 came to 4.54 nM.

In the case of `COc1ccc(Cn2c(C)cc(OCc3ccc(F)cc3CNC(=O)Nc3cc(C(C)(C)C)nn3-c3ccc(Cl)c(O)c3)c(Cl)c2=O)cc1` [Example 202, 1-[3-tert-butyl-1-(4-chloro-3-hydroxyphenyl)-1H-pyrazol-5-yl]-3-[2-({[3-chloro-1-(4-methoxy-benzyl)-6-methyl-2-oxo-1,2-dihydropyridin-4-yl]oxy}methyl)-5-fluorobenzyl]urea], the IC50 under setting [2] is 3.1 nM.

Take `Cc1ccc(C(=O)NCC(O)CO)cc1-n1c(C)cc(OCc2ccccc2CNC(=O)Nc2cc(C(C)(C)C)nn2-c2ccc(O)cc2)c(Cl)c1=O` (stereo not shown) [Example 217, 3-{4-[(2-{[({[3-tert-butyl-1-(4-hydroxyphenyl)-1H-pyrazol-5-yl]amino}carbonyl)amino]methyl}benzyl)oxy]-3-chloro-6-methyl-2-oxopyridin-1(2H)-yl}-N-(2,3-dihydroxypropyl)-4-methylbenzamide]: the IC50 under setting [2] amounted to 1.5 nM.

As to `CCc1c(OCc2ccccc2CNC(=O)Nc2cc(C(C)(C)C)nn2-c2ccccc2)ncn(Cc2ccccc2)c1=O` [Example 113, 1-(2-{[(1-benzyl-5-ethyl-6-oxo-1,6-dihydropyrimidin-4-yl)oxy]methyl}benzyl)-3-(3-tert-butyl-1-phenyl-1H-pyrazol-5-yl)urea], the IC50 under setting [1] was found to be 10 nM.

For `CNC(=O)c1ccc(C)c(-n2c(C)cc(OCc3ccc(F)cc3CNC(=O)Nc3cc(C(C)(C)C)nn3-c3ccc(O)c(Cl)c3)c(Cl)c2=O)c1` [Example 236, 3-{4-[(2-{[({[3-tert-butyl-1-(3-chloro-4-hydroxyphenyl)-1H-pyrazol-5-yl]amino}carbonyl)amino]methyl}-4-fluorobenzyl)-oxy]-3-chloro-6-methyl-2-oxopyridin-1(2H)-yl}-N,4-dimethyl-benzamide], under setting [2], the IC50 is 7.5 nM.

On to `COc1ccc(Cn2c(C)cc(OCc3ccccc3CNC(=O)Nc3cc(C(C)(C)C)nn3-c3ccc(O)c(Cl)c3)c(C)c2=O)cc1C#N` [Example 249, 1-[3-tert-butyl-1-(3-chloro-4-hydroxyphenyl)-1H-pyrazol-5-yl]-3-[2-({[1-(3-cyano-4-methoxybenzyl)-3,6-dimethyl-2-oxo-1,2-dihydropyridin-4-yl]oxy}methyl)benzyl]urea], for which the IC50 under setting [2] came to 9.6 nM.

`CNC(=O)c1ccc(C)c(-n2c(C)cc(OCc3ccc(F)cc3CNC(=O)Nc3cc(C(C)(C)C)nn3-c3cccc(Cl)c3)c(Cl)c2=O)c1` [Example 194, 3-{4-[(2-{[({[3-tert-butyl-1-(3-chlorophenyl)-1H-pyrazol-5-yl]amino}carbonyl)amino]methyl}-4-fluorobenzyl)oxy]-3-chloro-6-methyl-2-oxopyridin-1(2H)-yl}-N,4-dimethylbenzamide]: the IC50 under setting [1] is 2.45 nM.
